Data reported in US20080226565A1, “Anticariogenic Proteins & Peptides & Saccharides” (priority 2004, published 2008).

Experiments:
[1] = In-vivo: tooth samples treated with peptide, 12 hours in the oral cavity, then acetic acid, Knoop hardness; design: species or system human; settings: for B: Average initial hardness of the tooth surface (st. dev.): before treatment
Protocol: In another experiment, 126 sterilized tooth samples where treated with a variety of peptides, fixed to the device and positioned after the lower jaw in the oral cavity of 5 volunteers. The device remained in the oral cavity for a period of 12 hours after which the teeth where removed, cleaned and subjected to a drop of acetic acid (0.1N, 30 min., 37° C). Subsequently the acid was removed, the teeth where cleaned and the hardness was measured (Knoop method). The depth of penetration increased 8.82 μm, 5.40 μm, 5.32 μm and 3.77 μm respectively for teeth treated as blanco with 4.2% casein phosphopeptide e-polylysine copolymer, 7.5% phosvitin and with 4.2% bisphosphonylated e-polylysine. The p-values are respectively 0.000, 0.000 and 0.004 for casein phosphopeptide e-polylysine copolymer, bisphosphonylated e-polylysine and phosvitin.
Tooth samples have been cut in horizontal slices (thickness: 0.3 to 1 mm) with a Leitz 1600 tooth cutter with horizontal cutting blade; the slices are cut manually (with a bore) into small tooth samples that contain a small part of the original tooth surface. The tooth sample is positioned in a small plastic tube, that has been cut from a long plastic tube with 6 mm external diameter. The length of the tube is 3 to 6 mm. The inner part of the tube is filled with a polymer that hardens under light (Photoclearfil Bright; Kuraray). The tooth sample is positioned in the soft polymer inside the tube, in such a way that the original tooth surface is just surfacing above the tube. Finally the polymer is hardened with a light source. The tooth surface is polished with Struers silicon carbid paper (800-4000) and the hardness is measured 5 times on each of the samples under the Letiz Wetzlar microscope (weight on needle: 50 p). Tooth samples with a maximum average depth of penetration of 43 μm are retained for use in the oral cavity.
The tooth-samples are fixed to a device that has been described in the chapter “Description of the invention ( chapter: In-vivo experiments)” and the device is positioned in the oral cavity after the lower jaw.
A drop from a solution containing either, e-polylysine, CPP, bisphoshphonylated e-polylysine, casein phosphopeptide epsilon-polylysine copolymer or partially hydrolysed phosvitin has been positioned at the surface of tooth samples for a period of 30 minutes at 37 C.; the drop was removed and the procedure was repeated once more. All solutions contained also 3.1% CaCl2.2H2O and 1.7% KH2PO4 (except for the one containing e-polylysine).
The tooth surface was cleaned with a soft paper towel until it was visibly clean. Four such tooth samples where fixed to the device and located in the oral cavity behind the lower jaw. They resided in the oral cavity for a period of 12 hours (only to be removed during eating). Subsequently, they where removed, cleaned and the tooth surface was treated with a drop of acetic acid (0.1N, 30 min., 37° C.); the acid was removed, the tooth was washed with deionized water and the hardness was evaluated.
A: type of peptide ingredient in the solution (% on a w/w basis versus water). (*): the teeth where submerged (30 min.) in a saliva batch and dried afterwards on air, before they where treated with a solution that contained bisphosphonylated e-polylysine. B: Average initial hardness of the tooth surface; μm (st. dev.) C: Average hardness after treatment, after residing in the oral cavity and treatment with acid D: The average change in hardness (C−B) E: p-value (against blanco) of the Mann-Whitney statistical test F: the number of tooth samples that where treated with a specific formulation; hardness on each of the tooth samples was measured five times and an average value was calculated; most often 4 tooth samples per person; 5 volunteers participated to the experiment; the 132 tooth samples where randomized into groups (of 4 teeth) with the same average hardness value.

[2] = tested on: microaerophilic bacteria isolated from the oral cavity; test: Susceptibility (MIC), agar dilution, microaerophilic bacteria; assay type: cell-based
Protocol: The investigations included more than hundred strains isolated from the oral cavity: : anaerobes, microaerophilic bacteria, aerobes, Streptococcus spp. and yeast like fungi. The microorganisms were isolated from saliva, mucosal membrane, gingival pockets and caries decay. The susceptibility (MIC) of bacteria and yeastlike fungi were determined by means of plate dilution technique in agar.
The investigated samples were dissolved in sterile distilled water (immediately before the experiment) to obtain the following concentrations: 3.5, 1.7, 0.8, 0.4 and 0.2 mg/ml and were added into appropriate agar. The plates were inoculated using a Steers multipoint inoculator. Inoculum contained 10^6 CFU/spot. […]
Anaerobes. The susceptibility of bacteria was determined by means of the agar dilution methods with Brucella agar supplemented with 5% defibrinated sheep's blood, menadione and hemin. […] The susceptibility of bacteria was determined by means of the agar dilution methods with Brucella agar supplemented with 5% sheep's blood. […] The susceptibility of bacteria was determined by means of the agar dilution methods with Mueller-Hinton agar supplemented with 5% sheep's blood. […] The susceptibility to investigated samples was determined by means of the plate dilution technique in Mueller-Hinton agar. […]

[3] = 4.2% w/w solution, 12 hours oral cavity, acetic acid 0.1N 30 min

Substance | C: Average hardness after treatment, after residing in the oral cavity and treatment with acid [1, 3] | D: average change in hardness (C−B) [1, 3] | D: average change in hardness (C−B) ([1]; 7.8% w/w solution) | C: Average hardness after treatment, after residing in the oral cavity and treatment with acid ([1]; 7.8% w/w solution, 12 hours oral cavity, acid) | B: Average initial hardness of the tooth surface (st. dev.) ([1]; group for 4.2% solution) | B: Average initial hardness of the tooth surface (st. dev.) ([1]; group for 7.8% solution) | inhibitory concentration ([2]; 17 from 31 microaerophilic strains) | mic value ([2]; 12 strains from 31 microaerophilic strains) | D: average change in hardness (C−B) ([1]; 4.2% solution (*): teeth submerged 30 min in saliva before treatment) | C: Average hardness after treatment, after residing in the oral cavity and treatment with acid ([1]; 4.2% solution (*): teeth submerged 30 min in saliva before treatment, 12 hours oral cavity, acid) | B: Average initial hardness of the tooth surface (st. dev.) ([1]; group for 4.2% solution (*))
casein phosphopeptide epsilon-polylysine copolymer [(CPP x elys)n] | 46.21 (1.94) μm | 5.40 μm | 2.41 μm | 42.92 (1.43) μm | 40.81 (0.68) μm | 40.51 (1.55) μm | – | – | – | – | –
Epsilon-polylysine (elys; e-polylysine) [Product 6] | 47.81 (3.67) μm | 6.93 μm | – | – | 40.88 (0.91) μm | – | 0.2 mg/mL | – | – | – | –
bisphosphonylated epsilon-polylysine [bisphosphonylated e-polylysine] | 44.29 (2.08) μm | 3.77 μm | – | – | 40.52 (0.62) μm | – | – | 0.2 mg/mL | 3.29 μm | 44.05 (2.92) μm | 40.76 (0.73) μm
